pEC50: −log10 of the molar value.
What was measured:
[1] = target: T1, aromatase (Rattus norvegicus, UniProt P22443); test: biochemical
T1 sequence (P22443 1-508): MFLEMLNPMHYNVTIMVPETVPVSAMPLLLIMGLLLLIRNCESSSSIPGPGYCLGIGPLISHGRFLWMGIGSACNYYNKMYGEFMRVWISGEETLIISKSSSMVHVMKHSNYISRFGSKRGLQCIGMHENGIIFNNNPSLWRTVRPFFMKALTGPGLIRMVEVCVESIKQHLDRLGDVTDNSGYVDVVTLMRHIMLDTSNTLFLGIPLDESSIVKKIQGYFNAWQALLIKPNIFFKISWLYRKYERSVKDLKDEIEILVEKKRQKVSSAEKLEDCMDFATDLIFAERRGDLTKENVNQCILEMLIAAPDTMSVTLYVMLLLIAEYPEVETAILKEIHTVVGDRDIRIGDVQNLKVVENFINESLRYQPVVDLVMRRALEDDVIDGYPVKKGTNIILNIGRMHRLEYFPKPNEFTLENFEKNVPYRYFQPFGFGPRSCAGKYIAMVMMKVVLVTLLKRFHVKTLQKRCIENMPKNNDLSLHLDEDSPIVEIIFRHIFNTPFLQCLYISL
Procedure: In this test system, ovarian microsomes are obtained from rats treated with pregnant mares serum gonadotropin. Test compounds are added to reaction vials containing 0.1 μM 4-androstene-3,17-dione, 100,000 dpm 1,2[^3 H]-androstenedione, the microsomes and a NADPH generating system. The concentrations of the inhibitors tested ranged between 0.005 and 10 μM.

[2] = system: estrogen synthesis (aromatization); uterus; test: Estrogen Synthesis Inhibition in Rats: uterine weight of testosterone propionate-treated immature rats; assay type: in vivo, immature female Wistar rats; settings: Test I, 7 days, value marked + (p < 0.05 vs testosterone-treated control, 211.5)
Procedure: Immature female Wistar rats (45-55 grams) were divided into control and test groups of 2-8 animals each. Test compounds were administered for seven days as a component of the diet. Control animals received diet without the test compound. Beginning on the fourth day of the test, all animals treated with the test compound and one half of the control animals were given a subcutaneous injection of 1.0 mg of testosterone propionate in corn oil. The remaining control animals received only an equivalent volume of corn oil. On the seventh day of the test, rats treated with testosterone propionate were injected subcutaneously with 100 μCi of [^3 H]-testosterone in 50 μl of 3:1 (v/v) saline-ethanol.
After two hours, the animals were killed by decapitation. Uteri were isolated, trimmed of extraneous connective tissue, and weighed. […] In the control animals treated with testosterone propionate, estrogens produced by aromatization stimulated the uterus resulting in an increase in weight.
*ppm in feed. 300 ppm corresponds to approximately 30 mg/kg/day; 200 ppm
corresponds to approximately 20 mg/kg/day; 30 ppm corresponds to
approximately 3 mg/kg/day.

[3] = system: estrogen synthesis (ovarian estradiol, estrone, estriol); test: Estrogen Synthesis Inhibition in Rats: ovarian steroid concentration after [3H]-testosterone; assay type: in vivo, immature female Wistar rats; settings: Test I, 7 days; for Mean Steroid Concentration, estrone: testosterone-treated control 0.10; for Mean Steroid Concentration, estriol: testosterone-treated control 0.24; for Mean Steroid Concentration, estradiol: testosterone-treated control 1.43
Procedure: Test compounds were administered for seven days as a component of the diet. Control animals received diet without the test compound. Beginning on the fourth day of the test, all animals treated with the test compound and one half of the control animals were given a subcutaneous injection of 1.0 mg of testosterone propionate in corn oil. The remaining control animals received only an equivalent volume of corn oil.
The ovarian steroids were extracted with 1.5 ml of 9:1 (v/v) toluene/ethanol to which had been added 25 to 100 mcg each of unlabelled estradiol, estriol, and estrone, and approximately 1000 dpm of [^14 C]-estradiol. The samples were vortexed, centrifuged at 500×g for 10 minutes, and the organic phase was transferred to a conical vial. Two additional extractions were performed on the residue in the same way. The pooled organic extracts were evaporated for subsequent thin-layer chromatography.
Ovarian proteins were precipitated by the addition of 5.0 ml of ethanol to the remaining aqueous phase. After an overnight incubation at 4° C., the samples were centrifuged at 1500×g for 10 minutes. The supernatant was discarded and the pellet was dissolved in 0.3N potassium hydroxide.
The organic residue from each above extraction was redissolved in 9:1 (v/v) dichloromethane/methanol. The solution of each sample was applied to separate silica gel thin layer chromatography plates which contained a fluorescent indicator. The plates were developed in the first dimension with 160:38:1.5:0.5 (v/v/v/v) dichloromethane/ethyl acetate/methanol/acetic acid to within 3 cm of the top of the plate. After air-drying, the plate was developed in the second dimension with 180:19:1 (v/v/v) dichloromethane/methanol/ammonium hydroxide.
The spots were scraped from the plate using a glass wool plugged Pasteur pipet attached to a vacuum line. The steroids were eluted directly into scintillation vials by the addition of 0.2 ml of dichloromethane followed by two washes each of 2.0 ml of methanol. The organic solvent was evaporated and 10.0 ml of scintillation fluid (Beckman Ready Solv-NA) was added to the vials. Samples were analyzed by liquid scintillation spectrometry. Corrections were made based on the recoveries of the [^14 C]-steroid. Steroid concentrations are expressed as femtomoles per milligram protein.

[4] = system: DMBA-induced mammary tumors; test: DMBA-induced Mammary Tumor Inhibition; assay type: in vivo, female Sprague-Dawley rats; settings: Test II, 300 ppm in diet (approx. 30 mg/kg/day), 4 weeks
Procedure: Mammary tumors were produced in female Sprague-Dawley rats which were 50-60 days old by the gavage administration of 20 mg of 7,12-dimethylbenz[a]anthracene (DMBA). About six weeks after DMBA administration, the mammary glands were palpated at weekly intervals for the appearance of tumors. Whenever one or more tumors appeared and were measurable in an animal, that animal was selected for experimentation. […] Each control and test group contained 8 animals. The test compound was administered mixed into the food at a concentration of 300 ppm (corresponding to an appropriate daily dose of 30 mg/kg). Every experiment included a group of control rats having tumors and were given food without the compound admixed. […] The area of each tumor was calculated by multiplying the shortest and longest diameters of the tumor. The treatment and measurement of animals continued for 4-5 weeks at which time the final areas of the tumors were determined. For each compound (and control) at each dose level, the change in the mean tumor area was determined.
*dosed in the diet. 300 ppm corresponds to approximately 30 mg/kg/day.

[5] = system: breast cancer; settings: result in words; see Cancer Research, Vol. 42, Suppl. 8:3261s (1982); cited from earlier work
[6] = 30 ppm in feed (approx. 3 mg/kg/day)
[7] = 300 ppm in feed (approx. 30 mg/kg/day)

Clc1ccc(N(Cc2cccnc2)C2=NCCS2)cc1 [N--(4-chlorophenyl)-N--(4,5-dihydro-2-thiazolyl)-3-pyridinemethanamine]
pEC50 [1]: 7.17 | Mean Uterine Weight [2, 6]: 141.5 mg | Mean Uterine Weight [2, 7]: 136.0 mg | Mean Steroid Concentration, estrone [3, 6]: 0.31 femtomoles per milligram of protein | Mean Steroid Concentration, estriol [3, 6]: 0.27 femtomoles per milligram of protein | Mean Steroid Concentration, estradiol [3, 6]: 1.46 femtomoles per milligram of protein | Mean Steroid Concentration, estrone [3, 7]: 0.09 femtomoles per milligram of protein | Mean Steroid Concentration, estriol [3, 7]: 0.46 femtomoles per milligram of protein | Mean Steroid Concentration, estradiol [3, 7]: 1.42 femtomoles per milligram of protein | Mean Tumor Area, Start ([4]; baseline, control 62.8): 61.4 mm^2 | Mean Tumor Area, Finish ([4]; control 1087.0): 464.0 mm^2

CCC1(c2ccc(N)cc2)CCC(=O)NC1=O (stereo not shown) [aminoglutethimide]
effect in treatment of breast cancer [5]: beneficial effect in treatment of breast cancer

C[C@]12C=CC(=O)C=C1CC[C@@H]1[C@@H]2CC[C@]2(C)OC(=O)CC[C@@H]12 [testolactone]
effect in treatment of breast cancer [5]: beneficial effect in treatment of breast cancer

Reference: US4767770A, “Method of inhibiting aromatase” (Eli Lilly and Company, priority 1984, dated 1988)
